Each structure is given as a SMILES string.

Sequence of hMCH-1R (Q99705 whole entry): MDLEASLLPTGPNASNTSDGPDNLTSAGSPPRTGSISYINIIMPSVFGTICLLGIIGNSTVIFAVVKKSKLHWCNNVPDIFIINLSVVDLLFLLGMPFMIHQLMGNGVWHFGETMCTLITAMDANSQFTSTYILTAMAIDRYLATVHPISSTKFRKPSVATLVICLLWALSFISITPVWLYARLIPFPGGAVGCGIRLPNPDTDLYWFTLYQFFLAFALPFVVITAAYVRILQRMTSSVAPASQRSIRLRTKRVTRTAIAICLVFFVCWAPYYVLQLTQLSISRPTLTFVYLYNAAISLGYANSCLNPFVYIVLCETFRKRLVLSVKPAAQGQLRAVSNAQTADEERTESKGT

One data set addresses hMCH-1R (Homo sapiens (Human), UniProt Q99705). The experiment in a line: MCH-1 receptor binding test (125I-MCH binding to hMCH-1R transfected cell membranes). Conditions: competition with 100 pM 125I-MCH, membranes of CHO/Galpha16 cells stably transfected with hMCH-1R. On the procedure:
Res Commun. […] After the incubation the reaction is filtered using a cell harvester through 0.5% PEI treated fibreglass filters (GF/B, Unifilter Packard). The membrane-bound radioactivity retained on the filter is then determined after the addition of scintillator substance (Packard Microscint 20) in a measuring device (TopCount of Packard). […] The analysis of the concentration binding curve is carried out on the assumption of one receptor binding site.
As usually defined, the IC50 is the concentration that gives 50% inhibition. For `Cc1cc(CN2CCC(O)CC2)ccc1C(=O)Cn1ncc(OCc2ccc(Cl)cn2)cc1=O` [Example 7.14, 5-(5-Chloro-pyridin-2-ylmethoxy)-2-{2-[4-(4-hydroxy-piperidin-1-ylmethyl)-2-methyl-phenyl]-2-oxo-ethyl}-2H-pyridazin-3-one], the IC50 was 30 nM. The compound `Cc1cc(CN2CCC[C@@H](O)C2)ccc1C(=O)Cn1ccc(OCc2ccccc2)cc1=O` [Example 1.15, (R)-4-Benzyloxy-1-{2-[4-(3-hydroxy-piperidin-1-ylmethyl)-2-methyl-phenyl]-2-oxo-ethyl}-1H-pyridin-2-one] showed an IC50 of 31 nM. This IC50 and that of the compound before are within 1.5-fold of each other. Same read-out and setting: then `Cc1cc(CN2CCC[C@H]2CO)ccc1C(=O)Cn1ncc(OCc2ccccc2)cc1=O` [Example 5.3, (S)-5-Benzyloxy-2-{2-[4-(2-hydroxymethyl-pyrrolidin-1-ylmethyl)-2-methyl-phenyl]-2-oxo-ethyl}-2H-pyridazin-3-one], with 11 nM; and `Cc1cc(CN2CC[C@@H](O)C2)ccc1C(=O)Cn1ccc(OCc2ccc(Cl)cn2)cc1=O` [Example 3.4, (R)-4-(5-Chloro-pyridin-2-ylmethoxy)-1-{2-[4-(3-hydroxy-pyrrolidin-1-ylmethyl)-2-methyl-phenyl]-2-oxo-ethyl}-1H-pyridin-2-one], with 38 nM. The compound `Cc1cc(CN2CCC(CO)CC2)ccc1C(=O)Cn1ccc(OCc2ccccc2)cc1=O` [Example 1.6, 4-Benzyloxy-1-{2-[4-(4-hydroxymethyl-piperidin-1-ylmethyl)-2-methyl-phenyl]-2-oxo-ethyl}-1H-pyridin-2-one] displayed an IC50 of 24 nM. `Cc1cc(CN2CC[C@H](O)C2)ccc1C(=O)Cn1ccc(OCc2ccc(F)cn2)cc1=O` [Example 2.4]: the IC50 amounted to 70 nM. On the same count and under the same terms, then `Cc1cc(CN2CCCC[C@@H]2CO)ccc1C(=O)Cn1ncc(OCc2ccc(Cl)cn2)cc1=O` [Example 7.13, (R)-5-(5-Chloro-pyridin-2-ylmethoxy)-2-{2-[4-(2-hydroxymethyl-piperidin-1-ylmethyl)-2-methyl-phenyl]-2-oxo-ethyl}-2H-pyridazin-3-one], with 35 nM. The compound `Cc1cc(CN2CC[C@H](O)C2)ccc1C(=O)Cn1ncc(OCc2ccc(Cl)cn2)cc1=O` [Example 7.12] showed an IC50 of 30 nM.

For `Cc1cc(CN2CC3CC(C2)C3O)ccc1C(=O)Cn1ccc(OCc2ccccc2)cc1=O` (stereo not drawn) [Example 1.18], the IC50 is 16 nM. For `Cc1cc(CN2CCC[C@H](O)C2)ccc1C(=O)Cn1ncc(OCc2ccc(Cl)cn2)cc1=O` [Example 7.10], the IC50 was found to be 25 nM. This IC50 lies about 1.6-fold higher than the previous one.

`Cc1cc(CN2CCC[C@H](O)C2)ccc1C(=O)Cn1ccc(OCc2ccccc2)cc1=O` [Example 1.13, (S)-4-Benzyloxy-1-{2-[4-(3-hydroxy-piperidin-1-ylmethyl)-2-methyl-phenyl]-2-oxo-ethyl}-1H-pyridin-2-one] had an IC50 of 29 nM. On the same count and under the same terms, then `Cc1cc(CN2CC(O)C2)ccc1C(=O)Cn1ccc(OCc2ccccc2)cc1=O` [Example 1.1, 4-Benzyloxy-1-{2-[4-(3-hydroxy-azetidin-1-ylmethyl)-2-methyl-phenyl]-2-oxo-ethyl}-1H-pyridin-2-one], with 20 nM.

`Cc1cc(CN2CCC(C)(O)C2)ccc1C(=O)Cn1ncc(OCc2ccccc2)cc1=O` (stereo not drawn) [Example 5.14, 5-Benzyloxy-2-{2-[4-(3-hydroxy-3-methyl-pyrrolidin-1-ylmethyl)-2-methyl-phenyl]-2-oxo-ethyl}-2H-pyridazin-3-one]: the IC50 came out at 10 nM. As to `CNCc1ccc(C(=O)Cn2ncc(OCc3ccc(Br)cn3)cc2=O)c(C)c1` [Example 8.10, 5-(5-Bromo-pyridin-2-ylmethoxy)-2-[2-(2-methyl-4-methylaminomethyl-phenyl)-2-oxo-ethyl]-2H-pyridazin-3-one], the IC50 was 25 nM. On the same count and under the same terms, then `Cc1cc(CN2CCCC[C@@H]2CO)ccc1C(=O)Cn1ccc(OCc2ccc(Cl)cn2)cc1=O` [Example 3.14], with 37 nM; and `Cc1cc(CN2CCC[C@@H](O)C2)ccc1C(=O)Cn1ncc(OCc2ccc(Cl)cn2)cc1=O` [Example 7.11], with 31 nM. `CCN1CCN(Cc2ccc(C(=O)Cn3ncc(OCc4ccc(Cl)cn4)cc3=O)c(C)c2)CC1` [Example 7.2] gave an IC50 of 71 nM.

The compound `Cc1cc(CN2CC(O)C2)ccc1C(=O)Cn1ncc(OCc2ccccc2)cc1=O` [Example 5.7, 5-Benzyloxy-2-{2-[4-(3-hydroxy-azetidin-1-ylmethyl)-2-methyl-phenyl]-2-oxo-ethyl}-2H-pyridazin-3-one] gave an IC50 of 10 nM. Against the preceding compound, the IC50 is about 7.1-fold lower. Same read-out and setting: then `Cc1cc(CN2CCC[C@H](O)C2)ccc1C(=O)Cn1ncc(OCc2ccc(Br)cn2)cc1=O` [Example 8.4], with 24 nM; and `CNC(C)c1ccc(C(=O)Cn2ncc(OCc3ccc(OC)cn3)cc2=O)c(C)c1` (stereo not drawn) [Example 10.2, 5-(5-Methoxy-pyridin-2-ylmethoxy)-2-{2-[2-methyl-4-(1-methylamino-ethyl)-phenyl]-2-oxo-ethyl}-2H-pyridazin-3-one], with 22 nM. `Cc1cc(CN(C)C(C)C)ccc1C(=O)Cn1ccc(OCc2ccc(Br)cn2)cc1=O` [Example 4.17, 4-(5-Bromo-pyridin-2-ylmethoxy)-1-(2-{4-[(isopropyl-methyl-amino)-methyl]-2-methyl-phenyl}-2-oxo-ethyl)-1H-pyridin-2-one] showed an IC50 of 18 nM.

For the compound `Cc1cc(CN2CCC[C@H]2CO)ccc1C(=O)Cn1ccc(OCc2ccccc2)cc1=O` [Example 1.17, (S)-4-Benzyloxy-1-{2-[4-(2-hydroxymethyl-pyrrolidin-1-ylmethyl)-2-methyl-phenyl]-2-oxo-ethyl}-1H-pyridin-2-one], the IC50 amounted to 26 nM. The IC50 values of the last two compounds are within 1.5-fold of each other.

Take `Cc1cc(CN2CCN(C)CC2)ccc1C(=O)Cn1ccc(OCc2ccc(Br)cn2)cc1=O` [Example 4.14]: the IC50 turned out to be 72 nM. Against the preceding compound, the IC50 is about 2.8-fold higher. In turn, `Cc1cc(CN2CCC[C@@H](O)C2)ccc1C(=O)Cn1ncc(OCc2ccc(Br)cn2)cc1=O` [Example 8.6, (R)-5-(5-Bromo-pyridin-2-ylmethoxy)-2-{2-[4-(3-hydroxy-piperidin-1-ylmethyl)-2-methyl-phenyl]-2-oxo-ethyl}-2H-pyridazin-3-one] showed an IC50 of 21 nM.

In turn, `Cc1cc(CN2CCC(O)CC2)ccc1C(=O)Cn1ccc(OCc2ccc(F)cn2)cc1=O` [Example 2.3] yielded an IC50 of 93 nM. Against the preceding compound, the IC50 is about 4.4-fold higher. On the same count and under the same terms, the same measure for `Cc1cc(CN2CCNCC2)ccc1C(=O)Cn1ncc(OCc2ccc(Cl)cn2)cc1=O` [Example 7.17, 5-(5-Chloro-pyridin-2-ylmethoxy)-2-[2-(2-methyl-4-piperazin-1-ylmethyl-phenyl)-2-oxo-ethyl]-2H-pyridazin-3-one]: 83 nM. On the same count and under the same terms, the same measure for `Cc1cc(CN2CCN(C)CC2)ccc1C(=O)Cn1ccc(OCc2ccccc2)cc1=O` [Example 1.5, 4-Benzyloxy-1-{2-[2-methyl-4-(4-methyl-piperazin-1-ylmethyl)-phenyl]-2-oxo-ethyl}-1H-pyridin-2-one]: 48 nM.

Consider `Cc1cc(CN2CCC[C@@H](O)C2)ccc1C(=O)Cn1ccc(OCc2ccc(Cl)cn2)cc1=O` [Example 3.13, (R)-4-(5-Chloro-pyridin-2-ylmethoxy)-1-{2-[4-(3-hydroxy-piperidin-1-ylmethyl)-2-methyl-pheny]-2-oxo-ethyl}-1H-pyridin-2-one], for which the IC50 was found to be 34 nM. For the compound `CNCc1ccc(C(=O)Cn2ncc(OCc3ccc(OC)cn3)cc2=O)c(C)c1` [Example 9.4, 5-(5-Methoxy-pyridin-2-ylmethoxy)-2-[2-(2-methyl-4-methylaminomethyl-phenyl)-2-oxo-ethyl]-2H-pyridazin-3-one], the IC50 is 20 nM. This IC50 is about 1.7-fold lower than that of the compound before. Take `Cc1cc(CN2CCCC[C@@H]2CO)ccc1C(=O)Cn1ncc(OCc2ccc(Br)cn2)cc1=O` [Example 8.7, (R)-5-(5-Bromo-pyridin-2-ylmethoxy)-2-{2-[4-(2-hydroxymethyl-piperidin-1-ylmethyl)-2-methyl-phenyl]-2-oxo-ethyl}-2H-pyridazin-3-one]: the IC50 amounted to 20 nM. On the same count and under the same terms, then `CCNCc1ccc(C(=O)Cn2ncc(OCc3ccc(F)cn3)cc2=O)c(C)c1` [Example 6.3], with 59 nM; and `Cc1cc(CN2CCN(C)CC2)ccc1C(=O)Cn1ccc(OCc2ccc(Cl)cn2)cc1=O` [Example 3.5], with 84 nM; and `Cc1cc(CN2CCCC2)ccc1C(=O)Cn1ccc(OCc2ccccc2)cc1=O` [Example 1.7, 4-Benzyloxy-1-[2-(2-methyl-4-pyrrolidin-1-ylmethyl-phenyl)-2-oxo-ethyl]-1H-pyridin-2-one], with 11 nM. The same measure, in the same setting: then `Cc1cc(CN2CC[C@@H](O)C2)ccc1C(=O)Cn1ccc(OCc2ccccc2)cc1=O` [Example 1.14], with 53 nM.

The subject of the next data set is human hepatocytes. The data set can be described thus: Metabolic degradation in human hepatocytes (intrinsic clearance). The data set is classed as in vitro ADME. Conditions: human hepatocyte suspension, 1 μM test compound, 5% human serum, 6 h. How it is done: Determination of Metabolic Degradation in Human Hepatocytes for Compounds of the Invention
The metabolic degradation of the test compound is determined in a hepatocyte suspension. Hepatocytes (typically cryopreserved) are incubated in an appropriate buffer system (e.g. Dulbecco's modified eagle medium plus 3.5 μg glucagon/500 mL, 2.5 mg insulin/500 mL and 3.75 mg/500 mL hydrocortison) containing 5% human serum.
Following a (typically) 30 min preincubation in an incubator (37° C., 10% CO2), 5 μl of test compound solution (80 μM; from 2 mM in DMSO stock solution diluted 1:25 with medium) are added into 395 μl hepatocyte suspension (cell density in the range 0.25-5 Mio cells/mL, typically 1 Mio cells/mL; final concentration of test compound 1 μM, final DMSO concentration 0.05%). The cells are incubated for six hours (incubator, orbital shaker) and samples (25 μl) are taken at 0, 0.5, 1, 2, 4 and 6 hours. Samples are transferred into acetonitrile and pelleted by centrifugation (5 min). The supernatant is transferred to a new 96-deepwell plate, evaporated under nitrogen and resuspended.
Decline of parent compound is analyzed by HPLC-MS/MS.
CLint is calculated as follows CL_[…]=Dose/AUC=(CO/CD)/(AUD+clast/k)×1000/60. C0: initial concentration in the incubation [μM], CD: cell density of vital cells [10e6 cells/mL], AUD: area under the data [μM×h], clast: concentration of last data point [μM], k: slope of the regression line for parent decline [h−1].
Regarding `CN(C)Cc1ccc(C(=O)Cn2ncc(OCc3ccc(F)cn3)cc2=O)cc1` [Example 33.5 in WO2008/22979, reference compound], the CLint was 10.0 μL/min/10e6 cells.

`CN(C)Cc1ccc(C(=O)Cn2ccc(OCc3ccc(Br)cn3)cc2=O)cc1` [Example 11.2 in WO2009/103478, reference compound] yielded a CLint of 66.1 μL/min/10e6 cells.

The record behind these values is patent US8933079B2, “Pyridone and pyridazinone derivatives as anti-obesity agents” (Boehringer Ingelheim International GmbH, priority 2012, dated 2015).
